Laboratory results as given in the NIST ThermoML archive (doi:10.1016/j.jct.2007.04.005).

Experiment: xn = mol fraction of the nth substance listed
Conditions: 298.15 K, Liquid

CCCCCCCCC [nonane] + C1CCCCC1
Conditions	mass density [kg/m3]
100 kPa, x2 = 0	713.6
100 kPa, x2 = 0.09303	716.6
100 kPa, x2 = 0.2009	720.5
100 kPa, x2 = 0.3051	724.8
100 kPa, x2 = 0.417	729.9
100 kPa, x2 = 0.512	734.6
100 kPa, x2 = 0.5996	739.8
100 kPa, x2 = 0.7052	746.6
100 kPa, x2 = 0.7993	753.9
100 kPa, x2 = 0.9039	763.1
101 kPa, x2 = 0	713.86
101 kPa, x2 = 0.1022	717.19
101 kPa, x2 = 0.1548	719.05
101 kPa, x2 = 0.2009	720.75
101 kPa, x2 = 0.2591	723.01
101 kPa, x2 = 0.3306	726.01
101 kPa, x2 = 0.4003	729.17
101 kPa, x2 = 0.4596	732.07
101 kPa, x2 = 0.5321	735.92
101 kPa, x2 = 0.612	740.61
101 kPa, x2 = 0.6649	744.01
101 kPa, x2 = 0.7224	748.02
101 kPa, x2 = 0.8047	754.4
101 kPa, x2 = 0.8686	759.98
101 kPa, x2 = 0.9405	767.1
2130 kPa, x2 = 0	715.2
2130 kPa, x2 = 0.09303	718.2
2130 kPa, x2 = 0.2009	722.2
2130 kPa, x2 = 0.3051	726.5
2130 kPa, x2 = 0.417	731.5
2130 kPa, x2 = 0.512	736.2
2130 kPa, x2 = 0.5996	741.4
2130 kPa, x2 = 0.7052	748.2
2130 kPa, x2 = 0.7993	755.6
2130 kPa, x2 = 0.9039	764.8
4150 kPa, x2 = 0	716.8
4150 kPa, x2 = 0.09303	719.8
4150 kPa, x2 = 0.2009	723.8
4150 kPa, x2 = 0.3051	728.1
4150 kPa, x2 = 0.417	733.1
4150 kPa, x2 = 0.512	737.8
4150 kPa, x2 = 0.5996	743.1
4150 kPa, x2 = 0.7052	749.9
4150 kPa, x2 = 0.7993	757.2
4150 kPa, x2 = 0.9039	766.5
6180 kPa, x2 = 0	718.4
6180 kPa, x2 = 0.09303	721.4
6180 kPa, x2 = 0.2009	725.4
6180 kPa, x2 = 0.3051	729.7
6180 kPa, x2 = 0.417	734.7
6180 kPa, x2 = 0.512	739.5
6180 kPa, x2 = 0.5996	744.7
6180 kPa, x2 = 0.7052	751.5
6180 kPa, x2 = 0.7993	758.8
6180 kPa, x2 = 0.9039	768.1
8210 kPa, x2 = 0	719.9
8210 kPa, x2 = 0.09303	722.9
8210 kPa, x2 = 0.2009	726.9
8210 kPa, x2 = 0.3051	731.2
8210 kPa, x2 = 0.417	736.3
8210 kPa, x2 = 0.512	741
8210 kPa, x2 = 0.5996	746.3
8210 kPa, x2 = 0.7052	753.1
8210 kPa, x2 = 0.7993	760.4
8210 kPa, x2 = 0.9039	769.7
10230 kPa, x2 = 0	721.4
10230 kPa, x2 = 0.09303	724.4
10230 kPa, x2 = 0.2009	728.5
10230 kPa, x2 = 0.3051	732.8
10230 kPa, x2 = 0.417	737.9
10230 kPa, x2 = 0.512	742.5
10230 kPa, x2 = 0.5996	747.9
10230 kPa, x2 = 0.7052	754.7
10230 kPa, x2 = 0.7993	762
10230 kPa, x2 = 0.9039	771.3
11250 kPa, x2 = 0	722.2
11250 kPa, x2 = 0.09303	725.2
11250 kPa, x2 = 0.2009	729.2
11250 kPa, x2 = 0.3051	733.5
11250 kPa, x2 = 0.417	738.6
11250 kPa, x2 = 0.512	743.3
11250 kPa, x2 = 0.5996	748.6
11250 kPa, x2 = 0.7052	755.5
11250 kPa, x2 = 0.7993	762.8
11250 kPa, x2 = 0.9039	772.1
12260 kPa, x2 = 0	722.9
12260 kPa, x2 = 0.09303	725.9
12260 kPa, x2 = 0.2009	730
12260 kPa, x2 = 0.3051	734.3
12260 kPa, x2 = 0.417	739.4
12260 kPa, x2 = 0.512	744.1
12260 kPa, x2 = 0.5996	749.4
12260 kPa, x2 = 0.7052	756.2
12260 kPa, x2 = 0.7993	763.5
12260 kPa, x2 = 0.9039	772.9
14290 kPa, x2 = 0	724.4
14290 kPa, x2 = 0.09303	727.4
14290 kPa, x2 = 0.2009	731.5
14290 kPa, x2 = 0.3051	735.8
14290 kPa, x2 = 0.417	740.9
14290 kPa, x2 = 0.512	745.5
14290 kPa, x2 = 0.5996	750.9
14290 kPa, x2 = 0.7052	757.8
14290 kPa, x2 = 0.7993	765.1
14290 kPa, x2 = 0.9039	774.4
16310 kPa, x2 = 0	725.8
16310 kPa, x2 = 0.09303	728.8
16310 kPa, x2 = 0.2009	732.9
16310 kPa, x2 = 0.3051	737.2
16310 kPa, x2 = 0.417	742.3
16310 kPa, x2 = 0.512	747
16310 kPa, x2 = 0.5996	752.3
16310 kPa, x2 = 0.7052	759.2
16310 kPa, x2 = 0.7993	766.5
16310 kPa, x2 = 0.9039	775.9
18340 kPa, x2 = 0	727.2
18340 kPa, x2 = 0.09303	730.2
18340 kPa, x2 = 0.2009	734.3
18340 kPa, x2 = 0.3051	738.6
18340 kPa, x2 = 0.417	743.7
18340 kPa, x2 = 0.512	748.4
18340 kPa, x2 = 0.5996	753.8
